These results are taken from patent publication US20240358837A1, “Amorphous Photosensitizing Particles, Methods For The Preparation Thereof, And Methods For The Use Thereof” (priority 2021, published 2024).

One data set relates to blood-brain barrier. Put plainly: Photodynamic opening of the blood-brain barrier (Evans blue) in rats. The settings on record: low-dose PDT, 80 J/cm^2, 85 mW/cm^2. It counts as in vivo, rat. The procedure:
Sprague-Dawley rats (4-5 weeks old, Envigo) received an intravenous injection of NanoVP (0.25 or 0.5 mg/kg) or 5-aminolevulinic acid (5-ALA, 20 or 125 mg/kg) at 30 min or 4 hours before PDT. PDT parameters, including photosensitizer concentration, drug-light interval, irradiance, and radiant exposure, were selected. At 30 minutes post-photosensitizer injection, rats were anesthetized with isoflurane and secured within a stereotaxic frame.
During the 30-minute drug-light interval, a craniotomy was performed. The top of the rat head was shaved, and the skin was removed. The periosteum was retracted to the edges of the skull. Using a micro drill (OmniDrill35, WPI), a circle about 4 mm in diameter was sketched into the right parietal bone. Drilling was stopped periodically, and PBS was applied to prevent heating. […]
PDT was performed by light activation of the exposed brain (NanoVP: 690 nm, 80 or 100 J/cm^2; 5-ALA: 635 nm, 60 or 80 J/cm^2; 40 or 85 mW/cm^2; ML6600, Modulight). At 90 minutes post-PDT, rats received an intravenous injection of Evans blue dye (2%, 4 mL/kg) to determine the blood-brain barrier integrity using imaging and extraction methods In particular, Evans blue was quantified. […] Samples were centrifuged to pellet the tissue, and the optical density of Evans blue within the supernatant at 610 nm was measured on a multi-mode microplate reader. […]

For data set [1] the following is noted: non-tumor-bearing animals, 125 mg/kg 5-ALA and 54 J, within 5 days of treatment; cited from earlier work.
For a further data set, the system named is U87 cells. Nature of the data set: PDT cell viability (MTT assay) in U87 cells. Conditions: MTT 24 hours after PDT, 0-5 J/cm^2, 10 mW/cm^2. Format: cell-based, human. The method, then: Cells were cultured overnight in a 35-mm Petri dish or 96-well black wall plates (1-3.3×10^4 cells/cm^2) and then incubated with photosensitizers (i.e., NanoVP, free-form VP, or Liposomal VP; 0.25 μM) for 24 hours. Subsequently, cells were washed twice with PBS and incubated with a photosensitizer free complete medium. Photosensitizer uptake in cells was determined using extraction methods followed by VP fluorescence measurements (Excitation/Emission: 435/700±10 nm, Synergy Neo2, BioTek) or visualized using fluorescence imaging (Lionheart, BioTek) as described previously. PDT was performed by exposing the cells to 690 nm light (0-10 J/cm^2, […], bottom illumination; ML6600, Modulight).
(§1) At 24 hours after PDT, cell viability was determined using MTT [3-(4,5-dimethylthiazol-2-yl)-2,5-diphenyltetrazolium bromide] assay or neutral red assay (Abcam) following the vendor's protocol. For dark toxicity evaluation, cells were incubated with media containing photosensitizers (0-40 μM) for 72 hours, followed by the MTT assay. The photosensitizer efflux by ATP binding cassette (ABC) transporters was studied in MCF-7 and its multi-drug resistant sublines (MCF-7 TX400 and MCF-7 MX100) by adapting the protocols described herein.
For orientation: Tetrazolium assays rely on reduction of a dye to a coloured formazan, in cell work by metabolically active cells.

The nature of data set [2]: Fluorescence self-quenching (fluorescence in DMSO divided by fluorescence in PBS). Format: physicochemical. The settings on record: 0.625-5 μM. The method, then: The stability of NanoVP particles in PBS at 4° C. was determined by monitoring their hydrodynamic size and polydispersity index using a particle sizer analyzer for up to one year. NanoVP singlet oxygen (^1O2) generation, self-quenching, and drug release were studied in 96-well plates as described previously. NanoVP and singlet oxygen sensor green (SOSG) at 5 μM were mixed and irradiated with 690 nm light (10 J/cm^2, 10 mW/cm^2; ML6600, Modulight). A multi-mode microplate reader (Synergy Neo2, BioTek) acquired fluorescence signals of VP (Excitation/Emission: 435/650-750 nm) or SOSG (Excitation/Emission: 504/525 nm) before and after light irradiation. Self-quenching (FDSMO/FO) is defined as the fluorescence after disruption of the NanoVP using DMSO (FDSMO) divided by the fluorescence of the NanoVP in PBS (FO). Photosensitizer release from NanoVP (de-quenching) was studied by monitoring the gain in VP fluorescence signal in PBS/DMSO buffer (0-100% v/v) at room temperature or in Eagle's Minimum Essential Medium (EMEM, Cellgro) with 0-10% v/v fetal bovine serum (FBS, Gibco) at 37° C.
Fluorescence photoactivity was defined as the maximal fluorescence intensity (FL) of NC-VP and L-VP in PBS divided by the maximal fluorescence intensity (FL) of NC-VP and L-VP in DMSO. The absorbance spectrums of the constructs over the visible spectrum were determined in PBS and DMSO. […]

A further data set concerns U87 cancer cells. Put plainly: Lysosomal damage (neutral red uptake assay) after PDT. Format: cell-based, human. Conditions: 690 nm, 1 J/cm^2, 50 mW/cm^2; 0.25 μM. The procedure:
as §1

In the next data set the test system is caspase 3 in U87 cells. Nature of the data set: Total and cleaved caspase 3 immunoblotting after PDT. It counts as cell-based, human. The settings on record: one-hour post light activation. The procedure:
Expressions of total and cleaved caspase 3 were examined by immunoblotting techniques. U87 cells were plated in a 35-mm Petri dish (Falcon) at a density of 2.2×10^4 cells/cm^2. Cells were incubated with 0.25 μM of NanoVP, free-form VP, or Liposomal VP for 24 hours. Cells were washed twice with PBS and irradiated with 690-nm light (10 J/cm^2, 50 mW/cm^2) in a fresh culture medium. At 1 hour after PDT, cell lysates were collected in radioimmunoprecipitation assay (RIPA) buffer supplemented with a 1% protease inhibitor. Protein lysates (22 μg) were separated on a 4-12% precast Bis-Tris gel (NuPAGE) and transferred onto a nitrocellulose membrane. After blocking with Odyssey blocking buffer (Li-COR) for 1 hour, blots were incubated with primary antibody against beta-actin (#3700, cell signaling), caspase 3 (#9662, Cell Signaling,), or cleaved caspase 3 (#9661, Cell Signaling) overnight at 4° C. Blots were washed with 1X Tris-buffered Saline, 0.1% Tween® 20 Detergent (TBST) buffer followed by incubation with IRDye 680RD goat anti-mouse secondary antibody (926-68070, Li-COR) or IRDye 800CW goat anti-rabbit secondary antibody (926-32211, Li-COR) for 1 hour at room temperature based on the supplier's advice. Visualization of protein bands was developed using the LiCor ODYSSEY CLx (Li-COR). β-actin serviced as a loading control. Band intensity was determined using LiCOR ODYSSEY CLx software. PDT-treated samples were normalized to a no-treatment control.
On the technique in general: A western blot detects proteins with antibodies after separation by electrophoresis.

As to `NCC(=O)CCC(=O)O` [5-ALA, 5-aminolevulinic acid], the “depth at which extravasated Evan Blue is visible in rat brain” value in the data set on blood-brain barrier is listed as “up to 1 mm”. Moreover, in data set [1], the mortality is listed as 50%.

In the case of verteporfin [free-form VP], the “half maximal inhibition concentration (IC50) of PDT” value in the data set on U87 cells worked out at 0.20 μM×J/cm^2. The fluorescence self-quenching result in data set [2] was “up to 78 fold”. In the data set on U87 cancer cells, the lysosomal integrity entry was “does not affect lysosomal integrity”. For the same molecule, in the data set on caspase 3 in U87 cells, the “cleaved-to-total caspase-3 ratio” value is reported as approximately 4.4 and the “reduction of total (pro) caspase-3 expression” value is reported as approximately 50%. Besides, the “increase in cleaved caspase-3 formation” value in the data set with caspase 3 in U87 cells (10 J/cm^2, 50 mW/cm^2) is given as approximately 2.4 fold.

Usually mortality stands for the percentage killed.
